Experimental data as given in PMC8949142 (2022).

Key:
[1] = test system: G48nop (unlabeled) (DNA, aptamer) GCGACCGAAGTGAGGCTCGATCCAAGGTGGACGGGAGGTTGGATTGTGCGTG; assay: circular dichroism; conditions: 100 mM Na+, 5 mM K+, 2 mM Mg2+, 1 mM Ca2+; 20 mM Tris-HCl pH 7.6, 20 °C; 5 µM aptamer; qualitative
[2] = test system: G48 (DNA, aptamer) GGGAGGACGAAGCGGAACGCGACCGAAGTGAGGCTCGATCCAAGGTGGACGGGAGGTTGGATTGTGCGTGCAGAAGACACGCCCGACA; assay: biolayer interferometry; conditions: 100 mM Na+, 5 mM K+, 2 mM Mg2+, 1 mM Ca2+; 20 mM Tris-HCl pH 7.6; 1:1 fit
[3] = test system: G13 (DNA, aptamer) GGGAGGACGAAGCGGAACCCATGGGGTGTGAGGCTCGATCAGGAGGTAAAAGCAGCGCGTCGTCAGTGTGCAGAAGACACGCCCGACA; assay: biolayer interferometry; conditions: 100 mM Na+, 5 mM K+, 2 mM Mg2+, 1 mM Ca2+; 20 mM Tris-HCl pH 7.6; 1:1 fit
[4] = test system: G16 (DNA, aptamer) GGGAGGACGAAGCGGAACCACCTTGAGATGAGGCTCGATCACCGGTGGGTATAGTGGTCGCGATGTATACCAGAAGACACGCCCGACA; assay: biolayer interferometry; conditions: 100 mM Na+, 5 mM K+, 2 mM Mg2+, 1 mM Ca2+; 20 mM Tris-HCl pH 7.6; 1:1 fit
[5] = test system: G79 (DNA, aptamer) GGGAGGACGAAGCGGAACGGGGGTGGGTTGAGGCTCGATCATGATAGCGAATTGGACACGATTCGTGTACCAGAAGACACGCCCGACA; assay: biolayer interferometry; conditions: 100 mM Na+, 5 mM K+, 2 mM Mg2+, 1 mM Ca2+; 20 mM Tris-HCl pH 7.6; 1:1 fit
[6] = test system: G29 (DNA, aptamer) GGGAGGACGAAGCGGAACCGTAGGAAAGTGAGGCTCGATCTACCCTTGGATCGATTTGTCAGGTGGGGACCAGAAGACACGCCCGACA; assay: biolayer interferometry; conditions: 100 mM Na+, 5 mM K+, 2 mM Mg2+, 1 mM Ca2+; 20 mM Tris-HCl pH 7.6; 1:1 fit
[7] = test system: G24 (DNA, aptamer) GGGAGGACGAAGCGGAACGGGCGGGATTTGAGGCTCGATCCGACTACGGATACGGCTTGCTTGTATCCGCCAGAAGACACGCCCGACA; assay: biolayer interferometry; conditions: 100 mM Na+, 5 mM K+, 2 mM Mg2+, 1 mM Ca2+; 20 mM Tris-HCl pH 7.6; 1:1 fit
[8] = test system: G48nop (DNA, aptamer) GCGACCGAAGTGAGGCTCGATCCAAGGTGGACGGGAGGTTGGATTGTGCGTG; assay: biolayer interferometry; conditions: 100 mM Na+, 5 mM K+, 2 mM Mg2+, 1 mM Ca2+, 20 mM Tris-HCl pH 7.6
[9] = test system: G48nors (DNA, aptamer) TGAGGCTCGATCCAAGGTGGACGGGAGGTTGGATTGTGCGTG; assay: biolayer interferometry; conditions: 100 mM Na+, 5 mM K+, 2 mM Mg2+, 1 mM Ca2+; 20 mM Tris-HCl pH 7.6; 1:1 fit
[10] = test system: G48norsj (DNA, aptamer) CGATCCAAGGTGGACGGGAGGTTGGATTG; assay: biolayer interferometry; conditions: 100 mM Na+, 5 mM K+, 2 mM Mg2+, 1 mM Ca2+; 20 mM Tris-HCl pH 7.6; 1:1 fit
[11] = test system: random sequence (control) (DNA, single strand) GAGCCTTAGCAGCACTTCACACGATCCACCCTTAAGGCCAACCTTAACACGACCTCAAACACTGCGTAATGACTGTAGTGATGCCTTA; assay: biolayer interferometry; conditions: 100 mM Na+, 5 mM K+, 2 mM Mg2+, 1 mM Ca2+; 20 mM Tris-HCl pH 7.6; tested at 0.5 µM
[12] = test system: G48nop (FAM) (DNA, aptamer) GCGACCGAAGTGAGGCTCGATCCAAGGTGGACGGGAGGTTGGATTGTGCGTG; assay: microscale thermophoresis; conditions: 100 mM Na+, 5 mM K+, 2 mM Mg2+, 1 mM Ca2+, 20 mM Tris-HCl pH 7.6, 0.02% Tween-20, 25 °C
[13] = test system: control (random) sequence (FAM) (DNA, single strand) GAGCCTTAGCAGCACTTCACACGATCCACCCTTAAGGCCAACCTTAACACGACCTCAAACACTGCGTAATGACTGTAGTGATGCCTTA; assay: microscale thermophoresis; conditions: 100 mM Na+, 5 mM K+, 2 mM Mg2+, 1 mM Ca2+; 20 mM Tris-HCl pH 7.6, 0.02% Tween-20, 25 °C; GYM-A up to 10,000 nM; not fittable
[14] = test system: G48nop (DNA, aptamer) GCGACCGAAGTGAGGCTCGATCCAAGGTGGACGGGAGGTTGGATTGTGCGTG; assay: BLI aptasensor calibration, five-parameter logistic fit; conditions: 100 mM Na+, 5 mM K+, 2 mM Mg2+, 1 mM Ca2+; 20 mM Tris-HCl pH 7.6; GYM-A 55–14,000 nM; slope exponent -0.7837

Q: Which binding [1] does the source give for `CC1=C[C@@H](C2=C(C)[C@@H]3/C=C(\C)[C@@H](O)CC[C@@H]4C[C@@H](C)[C@@H](O4)/C(C)=C/CCC4=NCCC[C@@]43CC2)OC1=O` here?
A: yes

Q: What about the KD [2] of the same compound?
A: 288 nM

Q: And the KD [3]?
A: 168,000 nM

Q: What about the KD [4] of the same compound?
A: 495 nM

Q: And the KD [5]?
A: 341 nM

Q: What about the KD [6] of the same compound?
A: 308 nM

Q: And the KD [7]?
A: 859 nM

Q: What about the KD ([8]; 1:1 fit) of the same compound?
A: 95.30 nM

Q: What about the KD [9] of the same compound?
A: 354.00 nM

Q: What about the KD [10] of the same compound?
A: 501.00 nM

Q: And the binding [11]?
A: no

Q: And the KD [12]?
A: 34.50 ± 1.72 nM

Q: And the binding [13]?
A: no

Q: And the EC50 [14]?
A: 3316 nM

Q: Which binding ([8]; tested up to 1.5 µM) does the source give for `C=C1[C@@H](O)[C@@H]2O[C@]3(CC[C@H](/C=C/[C@@H](C)[C@@H]4CC(C)=C[C@@]5(O[C@H](C[C@@](C)(O)C(=O)O)CC[C@H]5O)O4)O3)CC[C@H]2O[C@@H]1[C@@H](O)C[C@H](C)[C@H]1O[C@@]2(CCCCO2)CC[C@H]1C` here?
A: no

Q: What about the binding ([12]; NB [sic], highest concentration not stated) of the same compound?
A: no
